Measured values: US20230165873A1, “Methods of Use for Single Molecule Compounds Providing Multi-Target Inhibition to Treat Covid 19” (priority 2020, published 2023)

Biological target: PI3K gamma (Homo sapiens, UniProt P48736)
Experiment: PI3K gamma in vitro inhibition
Type: biochemical
Conditions: read-out: IC50 inhibition PI3K gamma
Method: (§1) The kinase or bromodomain inhibitory activity of a compound of the invention can be determined by routine methods known to the skilled artisan without undue experimentation, or by procuring relevant analysis by a commercial vendor offering such services. […] In vivo, PI3K inhibition can be determined from target tissue biopsies by standard tissue processing in which cells are disrupted and Western Blot analysis is performed to determine the presence or absence of pAKT (substrate of PI3K) relative to a control sample. PI3K inhibition assays and BTK inhibition assays are known in the art and can be procured commercially through vendors such as Reaction Biology (Malvern, PA). The activity of a compound of the invention as an inhibitor of a bromodomain-containing protein, such as a BET protein, including BRD2, BRD3, BRD4, and/or BRDT, or an isoform or mutant thereof, may be determined in vitro, in vivo, or in a cell line. In vitro assays include assays that determine inhibition of bromodomain-containing proteins. Alternatively, inhibitor binding may be determined by running a competition experiment where a provided compound is incubated with a bromodomain-containing protein, such as a BET protein bound to known ligands, labeled or unlabeled. In vitro bromodomain inhibition assays can be performed using Alpha Screen Technology (Perkin Elmer Life and Analytical Sciences, Shelton, CT). In vivo bromodomain inhibition can be determined indirectly by evaluating the amount of a protein whose gene transcription is influenced or controlled by the bromodomain protein, for example, MYCN protein transcription is controlled by BRD4 (J.E. Delmore et al., Cell 2011, 146, 904-917; A. Puissant, Cancer Discov. 2013, 3, 308-323).
(§2) IC50 inhibition data against the indicated targets were determined for compounds of the invention using standard in vitro assays (Tables 8 and 9).

PI3K gamma, sequence (P48736 whole entry): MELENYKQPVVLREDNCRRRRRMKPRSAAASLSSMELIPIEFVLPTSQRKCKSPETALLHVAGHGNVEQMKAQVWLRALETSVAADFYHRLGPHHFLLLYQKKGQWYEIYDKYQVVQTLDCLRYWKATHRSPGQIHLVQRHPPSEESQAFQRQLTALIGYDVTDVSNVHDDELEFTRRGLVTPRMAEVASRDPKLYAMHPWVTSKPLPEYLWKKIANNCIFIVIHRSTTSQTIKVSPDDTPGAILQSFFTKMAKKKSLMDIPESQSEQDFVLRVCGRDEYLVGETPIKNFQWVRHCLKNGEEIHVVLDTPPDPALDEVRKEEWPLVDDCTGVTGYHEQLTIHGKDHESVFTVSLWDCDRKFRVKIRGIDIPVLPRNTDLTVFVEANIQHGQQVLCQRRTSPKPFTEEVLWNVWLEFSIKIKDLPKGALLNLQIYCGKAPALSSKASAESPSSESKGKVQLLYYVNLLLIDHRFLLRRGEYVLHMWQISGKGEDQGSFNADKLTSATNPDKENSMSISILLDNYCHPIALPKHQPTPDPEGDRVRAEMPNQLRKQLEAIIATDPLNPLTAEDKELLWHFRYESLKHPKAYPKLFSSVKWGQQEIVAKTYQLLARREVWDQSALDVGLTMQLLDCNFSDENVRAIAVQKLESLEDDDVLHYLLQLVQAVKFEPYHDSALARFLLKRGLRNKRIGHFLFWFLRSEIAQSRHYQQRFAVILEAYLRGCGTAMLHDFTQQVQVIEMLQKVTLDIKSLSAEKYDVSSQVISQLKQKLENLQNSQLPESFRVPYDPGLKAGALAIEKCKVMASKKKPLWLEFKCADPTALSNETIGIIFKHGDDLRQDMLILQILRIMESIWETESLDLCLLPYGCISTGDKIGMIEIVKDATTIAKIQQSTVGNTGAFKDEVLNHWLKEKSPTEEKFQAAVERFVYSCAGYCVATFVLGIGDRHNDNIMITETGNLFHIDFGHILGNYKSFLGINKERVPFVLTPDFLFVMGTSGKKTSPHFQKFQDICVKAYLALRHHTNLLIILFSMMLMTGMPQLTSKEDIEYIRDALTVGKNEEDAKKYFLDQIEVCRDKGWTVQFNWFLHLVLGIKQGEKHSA

| Structure (SMILES) | IC50 [nM] |
| --- | --- |
| C/C=C(\C)C(=O)N1CCOc2ccc(-c3csc4c(=O)cc(N5CCOCC5)oc34)cc21 [Compound 38] | 1000 to 10000 |
| C/C=C/C(=O)N1CCOc2ccc(-c3csc4c(=O)cc(N5CCOCC5)oc34)cc21 [Compound 39] | 1000 to 10000 |
| O=C(C1=CCCC1)N1CCOc2ccc(-c3csc4c(=O)cc(N5CCOCC5)oc34)cc21 [Compound 40] | 1000 to 10000 |
| C=CS(=O)(=O)N1CCCc2ccc(-c3csc4c(=O)cc(N5CCOCC5)oc34)cc21 [Compound 44] | < 500 |
| C=CS(=O)(=O)Nc1cc(-c2csc3c(=O)cc(N4CCOCC4)oc23)ccc1OC [Compound 45] | < 500 |
| C=CS(=O)(=O)Nc1cccc(-c2csc3c(=O)cc(N4CCOCC4)oc23)c1 [Compound 46] | < 500 |

Biological target: PI3K beta (Homo sapiens, UniProt P42338)
Sequence (P42338 whole entry): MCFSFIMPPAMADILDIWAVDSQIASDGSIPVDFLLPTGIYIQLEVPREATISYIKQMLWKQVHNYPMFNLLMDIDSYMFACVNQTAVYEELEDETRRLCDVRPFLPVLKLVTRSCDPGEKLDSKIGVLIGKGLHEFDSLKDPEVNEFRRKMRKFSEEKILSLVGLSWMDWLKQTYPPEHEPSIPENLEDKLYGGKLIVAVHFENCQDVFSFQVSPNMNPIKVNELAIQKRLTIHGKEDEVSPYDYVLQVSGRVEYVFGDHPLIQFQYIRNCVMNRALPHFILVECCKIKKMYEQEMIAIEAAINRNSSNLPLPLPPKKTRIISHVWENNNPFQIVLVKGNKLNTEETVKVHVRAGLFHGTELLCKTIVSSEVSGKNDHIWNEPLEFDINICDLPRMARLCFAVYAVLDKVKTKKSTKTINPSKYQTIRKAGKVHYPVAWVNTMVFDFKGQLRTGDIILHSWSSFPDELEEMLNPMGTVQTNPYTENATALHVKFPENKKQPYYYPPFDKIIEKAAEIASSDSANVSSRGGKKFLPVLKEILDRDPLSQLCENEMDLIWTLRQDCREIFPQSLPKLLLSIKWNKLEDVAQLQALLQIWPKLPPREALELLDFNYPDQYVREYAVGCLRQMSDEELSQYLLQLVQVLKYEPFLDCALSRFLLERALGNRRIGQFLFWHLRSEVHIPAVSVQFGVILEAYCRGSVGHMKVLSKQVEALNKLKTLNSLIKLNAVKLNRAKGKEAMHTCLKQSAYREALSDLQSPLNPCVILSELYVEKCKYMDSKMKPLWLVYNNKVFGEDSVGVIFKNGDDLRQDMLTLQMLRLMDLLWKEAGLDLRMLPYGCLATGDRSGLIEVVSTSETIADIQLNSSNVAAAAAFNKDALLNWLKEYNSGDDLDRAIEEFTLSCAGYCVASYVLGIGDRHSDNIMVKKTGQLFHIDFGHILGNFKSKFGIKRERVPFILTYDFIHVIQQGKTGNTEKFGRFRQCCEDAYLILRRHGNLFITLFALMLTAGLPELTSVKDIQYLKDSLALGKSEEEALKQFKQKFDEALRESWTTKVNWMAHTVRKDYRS
Sequence (P27986 whole entry partner): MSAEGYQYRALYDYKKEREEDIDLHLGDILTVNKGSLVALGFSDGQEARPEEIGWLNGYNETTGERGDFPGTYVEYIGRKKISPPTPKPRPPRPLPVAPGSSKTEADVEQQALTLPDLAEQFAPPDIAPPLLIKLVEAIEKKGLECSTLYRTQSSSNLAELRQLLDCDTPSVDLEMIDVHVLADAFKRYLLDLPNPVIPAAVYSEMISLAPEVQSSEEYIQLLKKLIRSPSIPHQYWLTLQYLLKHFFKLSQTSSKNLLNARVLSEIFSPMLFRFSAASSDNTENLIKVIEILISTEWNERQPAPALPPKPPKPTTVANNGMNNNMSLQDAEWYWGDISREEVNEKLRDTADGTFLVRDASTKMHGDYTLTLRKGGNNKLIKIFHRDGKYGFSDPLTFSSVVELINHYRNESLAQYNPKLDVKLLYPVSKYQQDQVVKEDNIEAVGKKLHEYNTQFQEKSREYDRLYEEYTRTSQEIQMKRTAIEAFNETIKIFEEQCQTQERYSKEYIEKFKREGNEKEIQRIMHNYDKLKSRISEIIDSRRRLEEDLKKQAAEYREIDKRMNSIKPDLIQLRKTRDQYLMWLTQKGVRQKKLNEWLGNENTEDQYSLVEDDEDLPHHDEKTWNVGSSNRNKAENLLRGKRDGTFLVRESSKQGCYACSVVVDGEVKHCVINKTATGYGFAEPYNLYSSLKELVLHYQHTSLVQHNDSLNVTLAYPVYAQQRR
Experiment: PI3K beta in vitro inhibition
Type: biochemical
Conditions: not given
Method: as §1

| Structure (SMILES) | IC50 [nM] |
| --- | --- |
| C/C=C(\C)C(=O)N1CCOc2ccc(-c3csc4c(=O)cc(N5CCOCC5)oc34)cc21 [Compound 38] | < 500 |
| C/C=C/C(=O)N1CCOc2ccc(-c3csc4c(=O)cc(N5CCOCC5)oc34)cc21 [Compound 39] | < 500 |
| O=C(C1=CCCC1)N1CCOc2ccc(-c3csc4c(=O)cc(N5CCOCC5)oc34)cc21 [Compound 40] | < 500 |
| C=CS(=O)(=O)N1CCCc2ccc(-c3csc4c(=O)cc(N5CCOCC5)oc34)cc21 [Compound 44] | < 500 |
| C=CS(=O)(=O)Nc1cc(-c2csc3c(=O)cc(N4CCOCC4)oc23)ccc1OC [Compound 45] | < 500 |
| C=CS(=O)(=O)Nc1cccc(-c2csc3c(=O)cc(N4CCOCC4)oc23)c1 [Compound 46] | < 500 |

Biological target: T1, BRD4-1 (Homo sapiens, UniProt O60885)
T1 construct: BRD4-1
Experiment: BRD4-1 in vitro inhibition
Type: binding
Conditions: not given
Method: as §1

| Structure (SMILES) | IC50 [nM] |
| --- | --- |
| C/C=C(\C)C(=O)N1CCOc2ccc(-c3csc4c(=O)cc(N5CCOCC5)oc34)cc21 [Compound 38] | < 500 |
| C/C=C/C(=O)N1CCOc2ccc(-c3csc4c(=O)cc(N5CCOCC5)oc34)cc21 [Compound 39] | < 500 |
| O=C(C1=CCCC1)N1CCOc2ccc(-c3csc4c(=O)cc(N5CCOCC5)oc34)cc21 [Compound 40] | < 500 |
| C=CS(=O)(=O)N1CCCc2ccc(-c3csc4c(=O)cc(N5CCOCC5)oc34)cc21 [Compound 44] | < 500 |
| C=CS(=O)(=O)Nc1cc(-c2csc3c(=O)cc(N4CCOCC4)oc23)ccc1OC [Compound 45] | < 500 |
| C=CS(=O)(=O)Nc1cccc(-c2csc3c(=O)cc(N4CCOCC4)oc23)c1 [Compound 46] | < 500 |

Biological target: PI3K alpha (Homo sapiens, UniProt P42336)
Sequence (P42336 whole entry): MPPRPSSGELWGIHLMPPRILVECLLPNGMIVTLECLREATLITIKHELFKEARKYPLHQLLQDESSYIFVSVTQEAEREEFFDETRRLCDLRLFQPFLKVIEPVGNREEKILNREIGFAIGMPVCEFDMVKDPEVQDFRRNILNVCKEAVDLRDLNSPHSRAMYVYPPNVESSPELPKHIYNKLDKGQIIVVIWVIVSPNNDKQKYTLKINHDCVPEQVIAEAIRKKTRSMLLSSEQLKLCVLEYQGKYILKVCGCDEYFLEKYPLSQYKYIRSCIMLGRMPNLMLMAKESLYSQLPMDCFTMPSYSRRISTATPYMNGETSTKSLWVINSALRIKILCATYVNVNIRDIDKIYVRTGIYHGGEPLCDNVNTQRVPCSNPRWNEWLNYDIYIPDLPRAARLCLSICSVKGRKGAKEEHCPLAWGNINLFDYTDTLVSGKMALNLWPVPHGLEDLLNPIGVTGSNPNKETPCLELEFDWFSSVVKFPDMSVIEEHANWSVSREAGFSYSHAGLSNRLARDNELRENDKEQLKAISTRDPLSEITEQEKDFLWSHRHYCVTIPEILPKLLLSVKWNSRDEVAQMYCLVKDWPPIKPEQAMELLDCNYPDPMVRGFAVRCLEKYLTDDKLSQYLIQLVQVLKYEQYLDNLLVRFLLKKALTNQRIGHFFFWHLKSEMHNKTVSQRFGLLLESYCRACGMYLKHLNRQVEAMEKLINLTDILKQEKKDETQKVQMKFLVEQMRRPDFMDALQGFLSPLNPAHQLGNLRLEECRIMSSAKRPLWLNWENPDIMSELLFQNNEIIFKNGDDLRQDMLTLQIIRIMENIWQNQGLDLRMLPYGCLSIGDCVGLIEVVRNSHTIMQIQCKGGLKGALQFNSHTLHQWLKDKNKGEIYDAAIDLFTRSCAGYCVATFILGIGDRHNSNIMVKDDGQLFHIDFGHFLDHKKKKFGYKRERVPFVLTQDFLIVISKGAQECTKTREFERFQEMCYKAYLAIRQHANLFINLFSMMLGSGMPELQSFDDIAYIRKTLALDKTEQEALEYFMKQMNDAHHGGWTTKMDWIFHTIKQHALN
Sequence (P27986 whole entry partner): as the sequence (P27986 whole entry partner) above
Experiment: PI3K alpha in vitro inhibition
Type: biochemical
Conditions: not given
Method: as §1

| Structure (SMILES) | IC50 [nM] |
| --- | --- |
| C/C=C(\C)C(=O)N1CCOc2ccc(-c3csc4c(=O)cc(N5CCOCC5)oc34)cc21 [Compound 38] | < 500 |
| C/C=C/C(=O)N1CCOc2ccc(-c3csc4c(=O)cc(N5CCOCC5)oc34)cc21 [Compound 39] | < 500 |
| O=C(C1=CCCC1)N1CCOc2ccc(-c3csc4c(=O)cc(N5CCOCC5)oc34)cc21 [Compound 40] | < 500 |
| C=CS(=O)(=O)N1CCCc2ccc(-c3csc4c(=O)cc(N5CCOCC5)oc34)cc21 [Compound 44] | < 500 |
| C=CS(=O)(=O)Nc1cc(-c2csc3c(=O)cc(N4CCOCC4)oc23)ccc1OC [Compound 45] | < 500 |
| C=CS(=O)(=O)Nc1cccc(-c2csc3c(=O)cc(N4CCOCC4)oc23)c1 [Compound 46] | < 500 |

Biological target: BTK C481S (Homo sapiens, UniProt Q06187, C481S)
Sequence (Q06187 whole entry C481S): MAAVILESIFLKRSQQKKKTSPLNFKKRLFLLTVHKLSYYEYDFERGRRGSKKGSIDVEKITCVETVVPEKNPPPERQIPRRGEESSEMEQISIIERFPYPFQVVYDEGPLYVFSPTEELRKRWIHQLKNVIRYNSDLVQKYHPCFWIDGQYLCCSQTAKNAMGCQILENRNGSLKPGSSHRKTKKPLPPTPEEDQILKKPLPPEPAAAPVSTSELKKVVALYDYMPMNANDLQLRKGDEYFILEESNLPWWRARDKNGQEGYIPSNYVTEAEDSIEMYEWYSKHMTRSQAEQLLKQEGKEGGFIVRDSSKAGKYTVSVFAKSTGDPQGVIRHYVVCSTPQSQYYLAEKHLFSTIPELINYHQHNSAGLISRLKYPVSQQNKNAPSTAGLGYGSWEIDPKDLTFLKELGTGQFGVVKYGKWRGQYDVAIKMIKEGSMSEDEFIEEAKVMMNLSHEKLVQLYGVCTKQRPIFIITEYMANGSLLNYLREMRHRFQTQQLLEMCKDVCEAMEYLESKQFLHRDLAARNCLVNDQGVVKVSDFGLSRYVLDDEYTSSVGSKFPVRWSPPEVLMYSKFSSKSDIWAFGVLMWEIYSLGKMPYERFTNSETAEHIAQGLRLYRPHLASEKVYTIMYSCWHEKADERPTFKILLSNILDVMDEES
Experiment: BTK C481S in vitro inhibition
Type: biochemical
Conditions: not given
Method: as §1, §2

| Structure (SMILES) | IC50 [nM] |
| --- | --- |
| C/C=C(\C)C(=O)N1CCOc2ccc(-c3csc4c(=O)cc(N5CCOCC5)oc34)cc21 [Compound 38] | > 45000 |
| C/C=C/C(=O)N1CCOc2ccc(-c3csc4c(=O)cc(N5CCOCC5)oc34)cc21 [Compound 39] | > 45000 |
| O=C(C1=CCCC1)N1CCOc2ccc(-c3csc4c(=O)cc(N5CCOCC5)oc34)cc21 [Compound 40] | 10000 to 45000 |
| C=CS(=O)(=O)N1CCCc2ccc(-c3csc4c(=O)cc(N5CCOCC5)oc34)cc21 [Compound 44] | 10000 to 45000 |
| C=CS(=O)(=O)Nc1cc(-c2csc3c(=O)cc(N4CCOCC4)oc23)ccc1OC [Compound 45] | > 45000 |
| C=CS(=O)(=O)Nc1cccc(-c2csc3c(=O)cc(N4CCOCC4)oc23)c1 [Compound 46] | > 45000 |

Biological target: T2, BRD4-2 (Homo sapiens, UniProt O60885)
T2 construct: BRD4-2
Experiment: BRD4-2 in vitro inhibition
Type: binding
Conditions: not given
Method: as §1

| Structure (SMILES) | IC50 [nM] |
| --- | --- |
| C/C=C(\C)C(=O)N1CCOc2ccc(-c3csc4c(=O)cc(N5CCOCC5)oc34)cc21 [Compound 38] | 500 to 1000 |
| C/C=C/C(=O)N1CCOc2ccc(-c3csc4c(=O)cc(N5CCOCC5)oc34)cc21 [Compound 39] | < 500 |
| O=C(C1=CCCC1)N1CCOc2ccc(-c3csc4c(=O)cc(N5CCOCC5)oc34)cc21 [Compound 40] | < 500 |
| C=CS(=O)(=O)N1CCCc2ccc(-c3csc4c(=O)cc(N5CCOCC5)oc34)cc21 [Compound 44] | < 500 |
| C=CS(=O)(=O)Nc1cc(-c2csc3c(=O)cc(N4CCOCC4)oc23)ccc1OC [Compound 45] | < 500 |
| C=CS(=O)(=O)Nc1cccc(-c2csc3c(=O)cc(N4CCOCC4)oc23)c1 [Compound 46] | < 500 |

Biological target: BTK (Homo sapiens, UniProt Q06187)
Sequence (Q06187 whole entry): as the sequence (Q06187 whole entry C481S) above, with S481C counted along it
Experiment: BTK in vitro inhibition
Type: biochemical
Conditions: not given
Method: as §1, §2

| Structure (SMILES) | IC50 [nM] |
| --- | --- |
| C/C=C(\C)C(=O)N1CCOc2ccc(-c3csc4c(=O)cc(N5CCOCC5)oc34)cc21 [Compound 38] | > 45000 |
| C/C=C/C(=O)N1CCOc2ccc(-c3csc4c(=O)cc(N5CCOCC5)oc34)cc21 [Compound 39] | 10000 to 45000 |
| O=C(C1=CCCC1)N1CCOc2ccc(-c3csc4c(=O)cc(N5CCOCC5)oc34)cc21 [Compound 40] | > 45000 |
| C=CS(=O)(=O)N1CCCc2ccc(-c3csc4c(=O)cc(N5CCOCC5)oc34)cc21 [Compound 44] | < 500 |
| C=CS(=O)(=O)Nc1cc(-c2csc3c(=O)cc(N4CCOCC4)oc23)ccc1OC [Compound 45] | < 500 |
| C=CS(=O)(=O)Nc1cccc(-c2csc3c(=O)cc(N4CCOCC4)oc23)c1 [Compound 46] | < 500 |
